Values after ≈ are worked out from the molar mass of the structure shown.
Assays:
Bacillus subtilis = assay: Antibacterial activity against Bacillus subtilis; assay type: functional
Candida albicans = assay: Antifungal activity against Candida albicans; assay type: functional
Staphylococcus aureus [1] = assay: Antibacterial activity against Staphylococcus aureus; assay type: functional
Aspergillus niger = assay: Antifungal activity against Aspergillus niger; assay type: functional
Escherichia coli [2] = assay: Antibacterial activity against Escherichia coli; assay type: functional
Pseudomonas aeruginosa [3] = assay: Antibacterial activity against Pseudomonas aeruginosa; assay type: functional
Staphylococcus aureus [4] = assay: Antibacterial activity against Staphylococcus aureus incubated for 18 hrs post 30 mins pre-diffusion by disk diffusion method; assay type: functional
Escherichia coli [5] = assay: Antibacterial activity against Escherichia coli incubated for 18 hrs post 30 mins pre-diffusion by disk diffusion method; assay type: functional
Streptococcus pneumoniae = assay: Antibacterial activity against Streptococcus pneumoniae; assay type: functional
Clostridium tetani = assay: Antibacterial activity against Clostridium tetani; assay type: functional
Pseudomonas aeruginosa [6] = assay: Antibacterial activity against Pseudomonas aeruginosa ATCC 27853 after 24 hrs by broth microdilution method; assay type: functional; settings: ATCC 27853, 24 h
Salmonella typhimurium = assay: Antibacterial activity against Salmonella typhimurium ATCC 14028 after 24 hrs by broth microdilution method; assay type: functional, Salmonella enterica subsp. enterica serovar Typhimurium; settings: Salmonella enterica, ATCC 14028, 24 h
Staphylococcus aureus [7] = assay: Antibacterial activity against Staphylococcus aureus ATCC 49444 after 24 hrs by broth microdilution method; assay type: functional; settings: ATCC 49444, 24 h
Listeria monocytogenes = assay: Antibacterial activity against Listeria monocytogenes ATCC 35152 after 24 hrs by broth microdilution method; assay type: functional; settings: ATCC 35152, 24 h
Escherichia coli [8] = assay: Antibacterial activity against Escherichia coli after 24 hrs by broth microdilution method; assay type: functional

Structure (SMILES)	MIC (Bacillus subtilis) [µg/mL]	MIC (Candida albicans) [µg/mL]	MIC (Staphylococcus aureus [1]) [µg/mL]	MIC (Aspergillus niger) [µg/mL]	MIC (Escherichia coli [2]) [µg/mL]	MIC (Staphylococcus aureus [4]) [µg/mL]	MIC (Escherichia coli [5]) [µg/mL]	also measured
COc1cc(/C=N/n2c(S)nnc2-c2ccncc2)cc(OC)c1OC	10.2 to 162 (≈ 27.5 to 438 µM)	10.2 to 162 (≈ 27.5 to 438 µM)	10.2 to 162 (≈ 27.5 to 438 µM)	10.2 to 162 (≈ 27.5 to 438 µM)	10.2 to 162 (≈ 27.5 to 438 µM)			MIC (Pseudomonas aeruginosa [3]): 10.2 to 162 µg/mL (≈ 27.5 to 438 µM)
C/C=N/n1c(S)nnc1-c1ccncc1	10.2 to 162 (≈ 46.5 to 741 µM)	10.2 to 162 (≈ 46.5 to 741 µM)	10.2 to 162 (≈ 46.5 to 741 µM)	10.2 to 162 (≈ 46.5 to 741 µM)	10.2 to 162 (≈ 46.5 to 741 µM)			MIC (Pseudomonas aeruginosa [3]): 10.2 to 162 µg/mL (≈ 46.5 to 741 µM)
Fc1ccc(/C=N/n2c(-c3ccncc3)n[nH]c2=S)cc1	10.2 to 162 (≈ 34.1 to 543 µM)	10.2 to 162 (≈ 34.1 to 543 µM)	10.2 (≈ 34.1 µM)	10.2 to 162 (≈ 34.1 to 543 µM)	10.2 to 162 (≈ 34.1 to 543 µM)			MIC (Pseudomonas aeruginosa [3]): 12.5 µg/mL (≈ 41.8 µM)
Cc1cc(C)cc(-c2nnc(Sc3cc(Cl)ncn3)[nH]2)c1						1.6 to 250 (≈ 5.03 to 787 µM)	1.6 to 250 (≈ 5.03 to 787 µM)	
Cc1nn(-c2ccccc2)c(-n2cncn2)c1-c1cc(-c2ccc(O)cc2)nc2nc3ccccc3n12	62.5 to 250 (≈ 129 to 516 µM)		62.5 to 250 (≈ 129 to 516 µM)		62.5 to 250 (≈ 129 to 516 µM)			MIC (Streptococcus pneumoniae): 62.5 to 250 µg/mL (≈ 129 to 516 µM); MIC (Clostridium tetani): 62.5 to 250 µg/mL (≈ 129 to 516 µM)
CSc1nccc(Sc2nnc(-c3cc(C(F)(F)F)cc(C(F)(F)F)c3)[nH]2)n1						1.6 to 250 (≈ 3.66 to 572 µM)	1.6 to 250 (≈ 3.66 to 572 µM)	
Cc1nc(-c2ccccc2)sc1-c1nnc(S)n1/N=C/c1ccccc1O								MIC (Pseudomonas aeruginosa [6]): 1.95 to 62.5 µg/mL (≈ 4.96 to 159 µM); MIC (Salmonella typhimurium): 1.95 to 62.5 µg/mL (≈ 4.96 to 159 µM); MIC (Staphylococcus aureus [7]): 1.95 to 62.5 µg/mL (≈ 4.96 to 159 µM); MIC (Listeria monocytogenes): 1.95 to 62.5 µg/mL (≈ 4.96 to 159 µM); MIC (Escherichia coli [8]): 1.95 to 62.5 µg/mL (≈ 4.96 to 159 µM)
FC(F)(F)c1ccc(-c2nnc(Sc3cc(Cl)nc(Sc4ccccc4)n3)[nH]2)cc1						1.6 to 250 (≈ 3.43 to 537 µM)	1.6 to 250 (≈ 3.43 to 537 µM)	
OCCCCSc1nc(Cl)cc(Sc2nnc(-c3cc(C(F)(F)F)cc(C(F)(F)F)c3)[nH]2)n1						1.6 to 250 (≈ 3.02 to 472 µM)	1.6 to 250 (≈ 3.02 to 472 µM)	
Cc1nn(-c2ccccc2)c(-n2cncn2)c1-c1cc(-c2ccc(-c3cccs3)cc2)nc2nc3ccccc3n12	62.5 to 250 (≈ 114 to 454 µM)		62.5 to 250 (≈ 114 to 454 µM)		62.5 to 250 (≈ 114 to 454 µM)			MIC (Streptococcus pneumoniae): 62.5 to 250 µg/mL (≈ 114 to 454 µM); MIC (Clostridium tetani): 62.5 to 250 µg/mL (≈ 114 to 454 µM)
Cc1ccc(-c2cc(-c3c(C)nn(-c4ccccc4)c3-n3cncn3)n3c(n2)nc2ccccc23)cc1	62.5 to 250 (≈ 130 to 518 µM)		62.5 to 250 (≈ 130 to 518 µM)		62.5 to 250 (≈ 130 to 518 µM)			MIC (Streptococcus pneumoniae): 62.5 to 250 µg/mL (≈ 130 to 518 µM); MIC (Clostridium tetani): 62.5 to 250 µg/mL (≈ 130 to 518 µM)
Brc1ccccc1-c1nnc2sc(-c3ccccc3)nn12		3.12 (≈ 8.75 µM)		6.25 (≈ 17.5 µM)				
COc1cc(OC)cc(-c2nnc(Sc3cc(Cl)nc(SC)n3)[nH]2)c1						1.6 to 250 (≈ 4.04 to 631 µM)	1.6 to 250 (≈ 4.04 to 631 µM)	
C=CC/C=N/n1c(S)nnc1-c1ccncc1	10.2 to 162 (≈ 41.6 to 662 µM)	10.2 to 162 (≈ 41.6 to 662 µM)	10.2 to 162 (≈ 41.6 to 662 µM)	10.2 to 162 (≈ 41.6 to 662 µM)	10.2 to 162 (≈ 41.6 to 662 µM)			MIC (Pseudomonas aeruginosa [3]): 10.2 to 162 µg/mL (≈ 41.6 to 662 µM)
Cc1nc(-c2ccccc2)sc1-c1nnc(S)n1/N=C/c1cccc(Cl)c1Cl								MIC (Pseudomonas aeruginosa [6]): 1.95 to 62.5 µg/mL (≈ 4.37 to 140 µM); MIC (Salmonella typhimurium): 1.95 to 62.5 µg/mL (≈ 4.37 to 140 µM); MIC (Staphylococcus aureus [7]): 1.95 to 62.5 µg/mL (≈ 4.37 to 140 µM); MIC (Listeria monocytogenes): 1.95 to 62.5 µg/mL (≈ 4.37 to 140 µM); MIC (Escherichia coli [8]): 1.95 to 62.5 µg/mL (≈ 4.37 to 140 µM)
CSc1nc(Cl)cc(Sc2nnc(-c3ccc(C(F)(F)F)cc3)[nH]2)n1						1.6 to 250 (≈ 3.96 to 619 µM)	1.6 to 250 (≈ 3.96 to 619 µM)	
CCC/C=N/n1c(S)nnc1-c1ccncc1	10.2 to 162 (≈ 41.2 to 657 µM)	10.2 to 162 (≈ 41.2 to 657 µM)	10.2 to 162 (≈ 41.2 to 657 µM)	10.2 to 162 (≈ 41.2 to 657 µM)	10.2 to 162 (≈ 41.2 to 657 µM)			MIC (Pseudomonas aeruginosa [3]): 10.2 to 162 µg/mL (≈ 41.2 to 657 µM)
Cc1nc(-c2ccccc2)sc1-c1nnc(S)n1/N=C/c1c(Cl)cccc1Cl								MIC (Pseudomonas aeruginosa [6]): 1.95 to 62.5 µg/mL (≈ 4.37 to 140 µM); MIC (Salmonella typhimurium): 1.95 to 62.5 µg/mL (≈ 4.37 to 140 µM); MIC (Staphylococcus aureus [7]): 1.95 to 62.5 µg/mL (≈ 4.37 to 140 µM); MIC (Listeria monocytogenes): 1.95 to 62.5 µg/mL (≈ 4.37 to 140 µM); MIC (Escherichia coli [8]): 1.95 to 62.5 µg/mL (≈ 4.37 to 140 µM)
COC1=CC(=O)C[C@@H](C)[C@]12Oc1c(Cl)c(OC)cc(OC)c1C2=O [GRISEOFULVIN]	100 to 500 (≈ 283 to 1420 µM)		100 to 500 (≈ 283 to 1420 µM)		100 to 500 (≈ 283 to 1420 µM)			MIC (Streptococcus pneumoniae): 100 to 500 µg/mL (≈ 283 to 1420 µM); MIC (Clostridium tetani): 100 to 500 µg/mL (≈ 283 to 1420 µM)
Sc1nnc(-c2ccncc2)n1/N=C/c1ccc(Br)cc1	10.2 to 162 (≈ 28.3 to 451 µM)	10.2 to 162 (≈ 28.3 to 451 µM)	10.2 to 162 (≈ 28.3 to 451 µM)	10.2 to 162 (≈ 28.3 to 451 µM)	10.2 to 162 (≈ 28.3 to 451 µM)			MIC (Pseudomonas aeruginosa [3]): 10.2 to 162 µg/mL (≈ 28.3 to 451 µM)
Cc1nc(-c2ccccc2)sc1-c1nnc(S)n1/N=C/c1ccc(F)cc1								MIC (Pseudomonas aeruginosa [6]): 1.95 to 62.5 µg/mL (≈ 4.93 to 158 µM); MIC (Salmonella typhimurium): 1.95 to 62.5 µg/mL (≈ 4.93 to 158 µM); MIC (Staphylococcus aureus [7]): 1.95 to 62.5 µg/mL (≈ 4.93 to 158 µM); MIC (Listeria monocytogenes): 1.95 to 62.5 µg/mL (≈ 4.93 to 158 µM); MIC (Escherichia coli [8]): 1.95 to 62.5 µg/mL (≈ 4.93 to 158 µM)
Cc1nn(-c2ccccc2)c(-n2cncn2)c1-c1cc(-c2ccc(-c3cc[nH]c3)cc2)nc2nc3ccccc3n12	62.5 to 250 (≈ 117 to 469 µM)		62.5 to 250 (≈ 117 to 469 µM)		62.5 to 250 (≈ 117 to 469 µM)			MIC (Streptococcus pneumoniae): 62.5 to 250 µg/mL (≈ 117 to 469 µM); MIC (Clostridium tetani): 62.5 to 250 µg/mL (≈ 117 to 469 µM)
FC(F)(F)c1cc(-c2nnc(Sc3cc(Cl)ncn3)[nH]2)cc(C(F)(F)F)c1						1.6 to 250 (≈ 3.76 to 587 µM)	1.6 to 250 (≈ 3.76 to 587 µM)	
COc1ccc(-c2cc(-c3c(C)nn(-c4ccccc4)c3-n3cncn3)n3c(n2)nc2ccccc23)cc1	62.5 to 250 (≈ 125 to 501 µM)		62.5 to 250 (≈ 125 to 501 µM)		62.5 to 250 (≈ 125 to 501 µM)			MIC (Streptococcus pneumoniae): 62.5 to 250 µg/mL (≈ 125 to 501 µM); MIC (Clostridium tetani): 62.5 to 250 µg/mL (≈ 125 to 501 µM)
CSc1nc(Cl)cc(Sc2nnc(-c3cccc(F)c3)[nH]2)n1						1.6 to 250 (≈ 4.52 to 707 µM)	1.6 to 250 (≈ 4.52 to 707 µM)	
O=[N+]([O-])c1ccc(/C=N/n2c(S)nnc2-c2ccncc2)cc1	10.2 to 162 (≈ 31.3 to 498 µM)	10.2 to 162 (≈ 31.3 to 498 µM)	10.2 to 162 (≈ 31.3 to 498 µM)	10.2 to 162 (≈ 31.3 to 498 µM)	10.2 to 162 (≈ 31.3 to 498 µM)			MIC (Pseudomonas aeruginosa [3]): 10.2 to 162 µg/mL (≈ 31.3 to 498 µM)
